Measurements as given in patent publication US10864191B2, “5-HT6 receptor antagonists for use in the treatment of Alzheimer's disease with apathy as comorbidity” (H. Lundbeck A/S, priority 2016, dated 2020).
pKi: −log10 of the molar value.

Assays:
[1] = system: donepezil-treated patients with moderate Alzheimer's disease; test: LADDER study post-hoc analysis: Activities of Daily Living (ADCS-ADL) by NPI apathy score; type: in vivo, human
Procedure: Patients were randomly assigned (1:1) to double-blind treatment with idalopirdine or placebo. The same patient population as in Example 3 was analysed in a post-hoc analysis. For the post-hoc analysis apathy was considered present if the apathy score as measured by Neuropsychiatric Inventory (NPI) was 1 or higher. The statistical analysis predicted a significant interaction at a 5% significance level between apathy score and treatment effect of idalopirdine on Activities of Daily Living as measured by the ADCS-ADL score (Galasko et al; An inventory to assess activities of daily living for clinical trials in Alzheimer's Disease. Alzheimer Dis Assoc Disord. 1997;11(Suppl 2):22-32) (a positive score means an improvement): […]

h5-HT1E = h5-HT1E (Homo sapiens, UniProt P28566); details: cited from earlier work
h5-HT1A = biological target: T1, h5-HT1A (Homo sapiens, UniProt P08908); details: cited from earlier work
T1 sequence (P08908 1-422): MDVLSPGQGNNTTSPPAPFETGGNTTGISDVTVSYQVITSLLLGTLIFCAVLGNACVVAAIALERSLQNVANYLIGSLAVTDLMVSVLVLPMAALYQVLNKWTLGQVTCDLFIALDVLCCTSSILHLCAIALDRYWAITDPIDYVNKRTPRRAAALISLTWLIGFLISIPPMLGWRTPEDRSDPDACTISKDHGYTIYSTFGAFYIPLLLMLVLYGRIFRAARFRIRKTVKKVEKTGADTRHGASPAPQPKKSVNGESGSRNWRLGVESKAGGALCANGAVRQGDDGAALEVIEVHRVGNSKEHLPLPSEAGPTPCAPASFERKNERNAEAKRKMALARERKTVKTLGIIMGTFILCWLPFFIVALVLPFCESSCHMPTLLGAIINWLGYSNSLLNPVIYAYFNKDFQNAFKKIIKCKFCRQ

h5-HT7 = h5-HT7 (Homo sapiens, UniProt P34969); details: cited from earlier work
h5-HT2B = h5-HT2B (Homo sapiens, UniProt P41595); details: cited from earlier work
h5-HT1B = h5-HT1B (Homo sapiens, UniProt P28222); details: cited from earlier work
[2] = system: donepezil-treated patients with moderate Alzheimer's disease; details: add-on to donepezil; cited from earlier work
[3] = system: donepezil-treated patients with moderate Alzheimer's disease; test: LADDER study: cognition (ADAS-cog) in donepezil-treated patients, incl. post-hoc analysis by NPI apathy score; type: in vivo, human
Procedure: The […] study that was conducted to assess the effect on cognitive performance of idalopirdine in donepezil-treated patients with moderate Alzheimer's disease. The […] study is registered with ClinicalTrials.gov, number NCT01019421 and is reported in Wilkinson D, et al. Safety and efficacy of idalopirdine, a 5-HT6 receptor antagonist, in patients with moderate Alzheimer's disease (LADDER): a randomised, double-blind, placebo-controlled phase 2 trial Lancet Neurol 2014; 13: 141-49. […] Patients were randomly assigned (1:1) to double-blind treatment with idalopirdine or placebo. The cognitive subscale of the 70-point, 11-item Alzheimer's Disease Assessment Scale (ADAS-cog) was rated at baseline and at weeks 4, 12, and 24. The ADAS-Cog scale is described in Rosen W G et al. A new scale for Alzheimer's disease. Am J Psychiatry 1984; 141: 1356-64. […] Subsequent to the analysis of the primary and secondary endpoints of the […] study as described in Example 2 above a post-hoc analysis was conducted. […] For the post-hoc analysis apathy was considered present if the apathy score as measured by Neuropsychiatric Inventory (NPI) was 1 or higher. The statistical analysis predicted a significant interaction at a 5% significance level between apathy score and treatment effect of idalopirdine on cognition as measured by the ADAS-Cog score (a negative score means less decline in cognitive skills and is thus desirable): […]

h5-HT2A = h5-HT2A (Homo sapiens, UniProt P28223); details: cited from earlier work
[4] = system: donepezil-treated patients with moderate Alzheimer's disease; details: add-on to donepezil 10 mg per day, all patients; cited from earlier work
h5-HT1F = biological target: T2, h5-HT1F (Homo sapiens, UniProt P30939); details: cited from earlier work
T2 sequence (P30939 1-366): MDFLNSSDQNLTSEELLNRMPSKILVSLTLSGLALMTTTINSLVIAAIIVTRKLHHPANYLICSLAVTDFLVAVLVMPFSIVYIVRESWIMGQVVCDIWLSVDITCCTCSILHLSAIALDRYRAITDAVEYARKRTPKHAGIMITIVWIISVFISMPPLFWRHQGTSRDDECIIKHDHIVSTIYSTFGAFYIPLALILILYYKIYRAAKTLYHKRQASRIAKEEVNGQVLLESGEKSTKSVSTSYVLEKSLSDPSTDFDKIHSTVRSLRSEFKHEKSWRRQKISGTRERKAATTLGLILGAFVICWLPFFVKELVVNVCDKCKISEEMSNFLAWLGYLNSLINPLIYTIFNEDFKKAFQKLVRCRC

h5-HT1D = h5-HT1D (Homo sapiens, UniProt P28221); details: cited from earlier work
Sequence of h5-HT1D (P28221 whole entry): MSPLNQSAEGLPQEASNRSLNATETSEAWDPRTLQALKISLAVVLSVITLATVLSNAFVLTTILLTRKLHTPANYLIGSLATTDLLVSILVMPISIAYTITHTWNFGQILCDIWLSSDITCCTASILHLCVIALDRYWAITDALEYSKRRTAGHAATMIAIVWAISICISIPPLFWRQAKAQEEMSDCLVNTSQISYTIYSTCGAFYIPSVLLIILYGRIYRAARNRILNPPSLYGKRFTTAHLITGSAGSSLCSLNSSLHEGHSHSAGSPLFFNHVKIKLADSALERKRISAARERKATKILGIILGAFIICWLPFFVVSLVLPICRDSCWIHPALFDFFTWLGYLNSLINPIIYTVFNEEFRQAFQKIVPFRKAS

Sequence of h5-HT1B (P28222 whole entry): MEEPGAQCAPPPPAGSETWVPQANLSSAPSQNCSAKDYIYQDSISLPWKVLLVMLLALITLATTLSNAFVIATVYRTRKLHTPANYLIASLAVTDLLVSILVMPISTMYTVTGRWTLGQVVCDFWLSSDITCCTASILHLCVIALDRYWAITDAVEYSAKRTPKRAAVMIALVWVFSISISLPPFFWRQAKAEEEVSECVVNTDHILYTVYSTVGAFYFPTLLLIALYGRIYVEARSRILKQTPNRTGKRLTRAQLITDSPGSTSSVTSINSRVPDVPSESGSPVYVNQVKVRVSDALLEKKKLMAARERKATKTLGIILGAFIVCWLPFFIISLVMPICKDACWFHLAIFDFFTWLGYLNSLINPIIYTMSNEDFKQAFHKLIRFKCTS
Sequence of h5-HT1E (P28566 whole entry): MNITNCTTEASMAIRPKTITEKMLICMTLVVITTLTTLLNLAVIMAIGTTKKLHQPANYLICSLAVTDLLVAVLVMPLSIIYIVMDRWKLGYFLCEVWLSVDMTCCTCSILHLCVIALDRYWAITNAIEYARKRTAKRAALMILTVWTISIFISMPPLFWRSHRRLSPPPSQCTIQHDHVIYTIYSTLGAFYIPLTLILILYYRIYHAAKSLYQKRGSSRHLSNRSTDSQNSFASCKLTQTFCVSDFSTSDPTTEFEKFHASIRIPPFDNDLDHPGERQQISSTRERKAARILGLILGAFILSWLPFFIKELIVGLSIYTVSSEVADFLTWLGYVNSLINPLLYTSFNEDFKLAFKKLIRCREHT
Sequence of h5-HT2B (P41595 whole entry): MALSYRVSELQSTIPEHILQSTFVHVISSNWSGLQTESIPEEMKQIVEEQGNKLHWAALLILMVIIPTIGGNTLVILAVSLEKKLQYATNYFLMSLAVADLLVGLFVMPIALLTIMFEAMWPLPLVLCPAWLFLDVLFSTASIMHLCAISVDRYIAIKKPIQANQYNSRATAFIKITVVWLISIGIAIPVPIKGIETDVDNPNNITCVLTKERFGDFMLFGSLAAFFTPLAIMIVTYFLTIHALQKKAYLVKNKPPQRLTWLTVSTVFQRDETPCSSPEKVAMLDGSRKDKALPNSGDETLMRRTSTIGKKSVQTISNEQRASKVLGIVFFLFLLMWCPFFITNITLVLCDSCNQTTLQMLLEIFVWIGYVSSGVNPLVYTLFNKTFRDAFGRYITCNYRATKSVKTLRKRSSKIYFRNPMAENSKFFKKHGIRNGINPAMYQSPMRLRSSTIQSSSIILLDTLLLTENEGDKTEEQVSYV
Sequence of h5-HT7 (P34969 whole entry): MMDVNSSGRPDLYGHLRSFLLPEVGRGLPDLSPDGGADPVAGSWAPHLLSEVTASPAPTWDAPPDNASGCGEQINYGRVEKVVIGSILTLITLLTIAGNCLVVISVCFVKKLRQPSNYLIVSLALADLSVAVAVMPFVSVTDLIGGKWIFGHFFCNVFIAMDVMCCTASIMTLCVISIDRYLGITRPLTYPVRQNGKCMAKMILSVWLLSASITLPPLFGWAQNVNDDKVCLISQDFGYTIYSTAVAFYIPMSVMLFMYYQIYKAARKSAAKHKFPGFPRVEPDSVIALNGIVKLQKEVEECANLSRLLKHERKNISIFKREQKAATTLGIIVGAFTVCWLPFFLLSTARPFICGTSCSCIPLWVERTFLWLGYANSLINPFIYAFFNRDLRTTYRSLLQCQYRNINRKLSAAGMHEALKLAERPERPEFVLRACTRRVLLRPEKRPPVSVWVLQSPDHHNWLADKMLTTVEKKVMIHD
Sequence of h5-HT2A (P28223 whole entry): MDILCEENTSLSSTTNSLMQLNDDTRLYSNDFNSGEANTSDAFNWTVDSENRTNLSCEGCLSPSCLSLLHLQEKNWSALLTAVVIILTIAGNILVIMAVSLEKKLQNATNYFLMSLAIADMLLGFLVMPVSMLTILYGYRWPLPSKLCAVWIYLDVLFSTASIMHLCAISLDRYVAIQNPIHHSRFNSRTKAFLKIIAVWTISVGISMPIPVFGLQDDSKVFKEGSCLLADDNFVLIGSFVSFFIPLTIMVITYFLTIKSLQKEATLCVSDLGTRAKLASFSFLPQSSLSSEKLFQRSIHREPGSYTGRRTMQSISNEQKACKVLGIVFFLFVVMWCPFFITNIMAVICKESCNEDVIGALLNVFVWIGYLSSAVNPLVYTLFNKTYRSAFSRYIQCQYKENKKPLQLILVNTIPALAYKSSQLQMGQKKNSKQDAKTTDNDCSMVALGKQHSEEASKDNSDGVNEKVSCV

Fc1ccc2c(CCNCc3cccc(OCC(F)(F)C(F)F)c3)c[nH]c2c1 [idalopirdine, N-(2-(6-fluoro-1H-indol-3-yl)ethyl)-3-(2,2,3,3-tetrafluoropropoxy)-benzylamine]
Estimated change in effect on ADL at week 24 per unit increase in NPI apathy item score (Estimate) ([1]; ADCS-ADL score, positive = improvement, add-on to donepezil): 0.92 | Effect on ADL at week 24 in patients without apathy (Estimate) ([1]; ADCS-ADL, NPI apathy score 0, add-on to donepezil): 0.39 | Effect on ADL at week 24 in patients with apathy (Estimate) ([1]; ADCS-ADL, NPI apathy score 1 or higher, add-on to donepezil): 2.89 | pKi (h5-HT1E): < 5.34 | pKi (h5-HT1A): 5.64 | pKi (h5-HT7): < 5.00 | pKi (h5-HT2B): < 5.39 | pKi (h5-HT1B): < 5.00 | Effects on pre-specified secondary efficacy endpoints at week 24 [2]: None of the effects of idalopirdine on the pre-specified secondary endpoints were statistically significant | Estimated change in effect on cognition at week 24 per unit increase in NPI apathy item score (Estimate) ([3]; ADAS-Cog score, negative = less decline, add-on to donepezil): −0.64 | Effect on cognition at week 24 in patients without apathy (Estimate) ([3]; ADAS-Cog, NPI apathy score 0, add-on to donepezil): −0.81 | Effect on cognition at week 24 in patients with apathy (Estimate) ([3]; ADAS-Cog, NPI apathy score 1 or higher, add-on to donepezil): −3.8 | pKi (h5-HT2A): 7.08 | Change from baseline in the ADAS-cog at week 24 (primary endpoint) versus placebo [4]: significantly better with idalopirdine than with placebo | pKi (h5-HT1F): 5.62 | pKi (h5-HT1D): 5.59
